The text below walks through data of article PMC6025191, “Heteronemin, a Marine Sesterterpenoid-Type Metabolite, Induces Apoptosis in Prostate LNcap Cells via Oxidative and ER Stress Combined with the Inhibition of Topoisomerase II and Hsp90” (Marine Drugs, 2018).

The target in the assay is T1, topoisomerase IIα (Homo sapiens, UniProt P11388).
T1 construct: gene TOP2A
The experiment in a line: cell-free DNA cleavage assay with pHOT1 plasmid ([…], induction of linear DNA). Type of assay: biochemical.

T1 sequence (P11388 whole entry): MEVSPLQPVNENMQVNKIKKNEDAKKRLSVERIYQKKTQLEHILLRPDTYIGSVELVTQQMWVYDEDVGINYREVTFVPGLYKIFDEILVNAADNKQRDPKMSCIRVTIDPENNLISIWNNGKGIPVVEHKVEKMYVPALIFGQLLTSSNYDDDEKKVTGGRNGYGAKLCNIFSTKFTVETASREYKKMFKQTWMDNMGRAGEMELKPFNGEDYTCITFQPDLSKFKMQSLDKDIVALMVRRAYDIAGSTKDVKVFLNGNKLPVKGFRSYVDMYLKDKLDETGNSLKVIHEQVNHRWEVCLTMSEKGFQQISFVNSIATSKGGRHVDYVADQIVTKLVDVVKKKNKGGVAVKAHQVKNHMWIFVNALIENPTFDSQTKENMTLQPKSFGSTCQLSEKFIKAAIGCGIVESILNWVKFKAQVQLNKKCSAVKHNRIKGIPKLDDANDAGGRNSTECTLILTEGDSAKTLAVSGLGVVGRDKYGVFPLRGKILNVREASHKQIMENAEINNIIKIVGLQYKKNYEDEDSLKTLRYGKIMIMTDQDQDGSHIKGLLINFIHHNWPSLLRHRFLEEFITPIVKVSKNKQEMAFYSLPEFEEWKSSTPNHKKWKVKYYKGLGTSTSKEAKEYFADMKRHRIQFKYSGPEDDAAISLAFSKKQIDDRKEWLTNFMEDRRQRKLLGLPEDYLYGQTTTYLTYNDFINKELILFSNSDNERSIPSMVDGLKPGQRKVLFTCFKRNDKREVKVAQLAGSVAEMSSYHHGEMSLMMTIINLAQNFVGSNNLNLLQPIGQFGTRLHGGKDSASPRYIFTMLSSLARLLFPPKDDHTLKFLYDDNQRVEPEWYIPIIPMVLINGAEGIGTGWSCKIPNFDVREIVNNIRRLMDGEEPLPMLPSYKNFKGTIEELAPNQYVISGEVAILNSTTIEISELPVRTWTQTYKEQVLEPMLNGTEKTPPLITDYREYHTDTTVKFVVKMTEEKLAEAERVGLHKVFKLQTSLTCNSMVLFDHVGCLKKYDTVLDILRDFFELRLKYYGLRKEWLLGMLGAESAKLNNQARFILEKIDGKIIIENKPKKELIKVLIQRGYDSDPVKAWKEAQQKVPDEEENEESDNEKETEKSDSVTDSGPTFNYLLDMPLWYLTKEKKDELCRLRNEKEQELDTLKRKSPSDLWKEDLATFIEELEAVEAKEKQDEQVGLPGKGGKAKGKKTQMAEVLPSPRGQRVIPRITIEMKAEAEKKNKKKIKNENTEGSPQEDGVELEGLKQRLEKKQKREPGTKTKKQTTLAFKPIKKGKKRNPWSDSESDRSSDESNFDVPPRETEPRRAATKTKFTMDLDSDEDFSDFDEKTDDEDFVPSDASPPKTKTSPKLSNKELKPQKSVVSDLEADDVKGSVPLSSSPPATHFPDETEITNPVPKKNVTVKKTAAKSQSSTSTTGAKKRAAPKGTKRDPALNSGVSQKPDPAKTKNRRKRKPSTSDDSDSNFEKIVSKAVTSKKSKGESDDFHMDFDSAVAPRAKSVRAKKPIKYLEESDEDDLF

Take `COc1cc([C@@H]2c3cc4c(cc3[C@@H](O[C@@H]3O[C@@H]5CO[C@@H](C)O[C@H]5[C@H](O)[C@H]3O)[C@H]3COC(=O)[C@H]23)OCO4)cc(OC)c1O` [etoposide]: the “cell-free DNA cleavage assay with pHOT1 plasmid (500 μM, induction of linear DNA)” value is on record as “A linear DNA strand was observed upon treating the supercoiled pHOT1 plasmid DNA with etoposide, a standard topo II poison”.
